Holding throughout (assay type): in vivo, human
Data set [1] in a line: Phase 1B Dose-Finding Study in Postmenopausal Women: serum calcium levels. As to conditions: baseline vs 28 days, orally once daily, subjects with >60 pg/ml serum PTH at baseline. The protocol:
(§1) Reference is made to Zella et al., “Novel, Selective Vitamin D Analog Suppresses Parathyroid Hormone in Uremic Animals and Postmenopausal Women, Am J. Nephrology 2014; 39:476-483, May 17, 2014, the content of which is incorporated herein by reference in its entirety. Zella et al. discloses the results from a Phase 1B Dose-Finding Study in Postmenopausal Women in which the participants were administered various doses of 2MD and afterwards, serum parathyroid hormone (PTH) levels and serum calcium levels were monitored. In Zella et al.'s study, post-menopausal women were treated orally once daily with 2MD, calcitriol, or placebo for 28 days. Serum samples for PTH analysis were collected at baseline and 2, 7, 14, and 28 days after the first dose was administered.
(§2) In FIG. 1 of the present application, the results from the Phase 1B Dose-Finding Study in Postmenopausal Women from Zella et al. were plotted using only data from subjects that would be classified as having primary hyperparathyroidism or on a watch list for having primary hyperparathyroidism (i.e., subjects having >60 pg/ml serum PTH at baseline). In FIG. 1, the number of subjects administered each dose of 2MD, calcitriol, or placebo, consisted of the following: 0.05 μg 2MD-2 subjects, 0.11 μg 2MD-3 subjects; 0.17 μg 2MD-4 subjects; 0.44 μg 2MD-2 subjects; 0.5 μg calcitriol-1 subject; and placebo-1 subject. […]

Data set [2] relates to serum parathyroid hormone (PTH). The data set can be described thus: Phase 1B Dose-Finding Study in Postmenopausal Women: serum PTH in subjects with >60 pg/ml serum PTH at baseline. As to conditions: after 28 days. How it is done: as §1
In FIG. 1 of the present application, the results from the Phase 1B Dose-Finding Study in Postmenopausal Women from Zella et al. were plotted using only data from subjects that would be classified as having primary hyperparathyroidism or on a watch list for having primary hyperparathyroidism (i.e., subjects having >60 pg/ml serum PTH at baseline). In FIG. 1, the number of subjects administered each dose of 2MD, calcitriol, or placebo, consisted of the following: 0.05 μg 2MD-2 subjects, 0.11 μg 2MD-3 subjects; 0.17 μg 2MD-4 subjects; 0.44 μg 2MD-2 subjects; 0.5 μg calcitriol-1 subject; and placebo-1 subject. As indicated, PTH levels in the subjects administered 2MD at: doses of 0.11 μg, 0.17 μg, and 0.4 μg decreased over time at a level corresponding, to the dose of 2MD. After 28 days, a dose of 2MD of 0.11 μg, 0.17 μg, and. […] (See FIG. 2 and FIG. 3). In summary, 2MD could be administered orally at a daily dose of 0.11 μg-0.44 μg to treat subjects having primary hyperparathyroidism or at risk, for developing primary hyperparathyroidism.

A short description of data set [3]: Phase 1B Dose-Finding Study in Postmenopausal Women: serum phosphate levels. As to conditions: baseline vs 28 days, orally once daily, subjects with >60 pg/ml serum PTH at baseline. The protocol:
as §1, §2

With `C=C1[C@H](O)CC(=C/C=C2\CCC[C@@]3(C)C2CCC3[C@@H](C)CCCC(C)(C)O)C[C@H]1O` (stereo partly drawn) [2MD, 2-methylene-19-nor-(20S)-1α,25-dihydroxyvitamin D3], the “rise in serum calcium levels” value in data set [1] is listed as “without increasing serum calcium”. Also, in data set [2] (0.05 μg orally once daily), the “increase in PTH” value is 16%. For the same compound, the “decrease in PTH” value in data set [2] (0.11 μg orally once daily) is −7%; in data set [2] (0.17 μg orally once daily) it was −31%; in data set [2] (0.4 μg orally once daily), −44%. Moreover, in data set [3], the “rise in serum phosphate levels” value was “without increasing serum calcium or serum phosphate”.
Turning to `C=C1/C(=C\C=C2/CCC[C@]3(C)[C@@H]([C@H](C)CCCC(C)(C)O)CC[C@@H]23)C[C@@H](O)C[C@@H]1O` [calcitriol, reference compound], the “increase in PTH” value in data set [2] (0.5 μg orally once daily) worked out at 15%.

(Values after patent US10369161B2, “Use of 2-methylene-19-NOR-(20S)-1-alpha,25-dihydroxyvitamin D3 to treat primary hyperparathyroidism” (Wisconsin Alumni Research Foundation, priority 2014, dated 2019).)
